US12612386B2, “Heteroaryl-triazole compounds as pesticides” (Bayer Aktiengesellschaft, priority 2020, dated 2026)

How the values were obtained:
Format in all cases: in vivo
[1] = system: cattle tick larvae (Rhipicephalus microplus), strain Parkhurst, resistant against synthetic pyrethroids; assay: Rhipicephalus (Boophilus) microplus in-vitro contact test, larval cattle tick; conditions: 5 μg/cm^2 (=500 g/ha), after 48 hours
Outline: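 Compound in acetone coated onto the inner walls of glass tubes (900 ppm giving 5 μg/cm^2), solvent evaporated, then 20–50 larvae added and held at 27 °C, 85% RH. After 48 h, efficacy scored from negative geotactic behaviour as % dead or moribund larvae.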

[2] = system: engorged adult female cattle ticks (Rhipicephalus microplus) strain Parkhurst, SP-resistant; assay: Rhipicephalus (Boophilus) microplus dip test; conditions: 100 ppm, egg deposition after 7 days
Experimental: Rhipicephalus (Boophilus) Microplus—Dip Test
Test animal: cattle ticks (Rhipicephalus microplus) strain Parkhurst, SP-resistant
(§1) Solvent: dimethyl sulfoxide
To produce a suitable preparation of active compound, 10 mg of active compound are dissolved in 0.5 mL solvent, and the concentrate is diluted with water to the desired concentration.
This compound solution is pipetted into tubes. 8-10 engorged, adult, female cattle ticks (Rhipicephalus microplus) are placed in perforated tubes. These tubes are immersed in the aqueous compound solution until the ticks are completely moistened. After the liquid has drained off, the ticks are transferred to a filter paper in a plastic tray and stored in a climate chamber.
After 7 days egg deposition of fertile eggs is monitored. Eggs where fertility is not visible are stored in a climate chamber till hatching after about 42 days. An efficacy of 100% means all eggs are infertile; 0% means all eggs are fertile.

[3] = system: adult unfed cat fleas (Ctenocephalides felis); assay: Ctenocephalides felis oral test; conditions: 48 h
Experimental: Ctenocephalides felis—Oral Test
as §1
To produce a suitable preparation of active compound, 10 mg of active compound are dissolved in 0.5 mL solvent, and the concentrate is diluted with citrated cattle blood to the desired concentration.
Approximately 20 adult unfed cat fleas (Ctenocephalides felis) are placed in a flea chamber whose top and bottom is covered with gauze. A chamber whose bottom is sealed with parafilm, is filled with the blood-compound solution and placed on top of the flea chamber, so that the fleas can suck the blood. The blood chamber is heated to 37° C. whereas the flea chamber is kept at room temperature.
After 2 days mortality in % is determined. 100% means all the fleas have been killed; 0% means none of the fleas have been killed.

[4] = system: adult brown dog ticks (Rhipicephalus sanguineus); assay: Rhipicephalus sanguineus in-vitro contact test, adult brown dog ticks; conditions: 48 h, read-out: efficacy (ticks dead or moribund)
Outline: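 Acetone solution rolled onto tube walls, 2 h at 30 rpm; 900 ppm → 5 μg/cm^2. Solvent evaporated, 5-10 adults/tube, perforated lid, lying, RT. 48 h: heat plate 45-50° C ≤5 min; immotile/uncoordinated = dead/moribund. 100% = all dead/moribund.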

[5] = system: green peach aphid (Myzus persicae); assay: whole plant or invertebrate; conditions: 120 h
Experimental: Solvent: 100 parts by weight acetone
To produce a suitable preparation of active compound, 1 part by weight of active compound is mixed with the stated amount of solvent, and the concentrate is diluted with water to the desired concentration.
50 μL compound solution is filled in microtiter plates and 150 μL IPL41 insect medium (33%+15% sugar) is added to obtain a total volume of 200 μL per well. Afterwards the plates are sealed with parafilm through which a mixed population of the green peach aphid (Myzus persicae) can suck on the compound preparation.
After 5 days mortality in % is determined. 100% means all aphids have been killed and 0% means none of the aphids have been killed.
Myzus persicae—Oral Test (MYZUPE Oral)

[6] = system: green peach aphid (Myzus persicae); assay: Myzus persicae spray test (MYZUPE); conditions: 120 h, 100 g/ha, after 5 days
Outline: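 Chinese cabbage leaf disks infested with all instars of Myzus persicae were sprayed with compound formulated in acetone/dimethylformamide and diluted in water with 1000 ppm alkylarylpolyglycol ether emulsifier. Percent mortality was scored after 5 days, 100% meaning all aphids killed.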

[7] = system: fall armyworm larvae (Spodoptera frugiperda); assay: whole plant or invertebrate; conditions: 168 h
Outline: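 Maize leaf sections sprayed with compound in acetone/DMF with alkylarylpolyglycol ether emulsifier diluted in water, then infested with fall armyworm larvae once dry. Mortality (%) scored after 7 days; 100% = all caterpillars killed.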

[8] = system: adult flies Musca domestica strain WHO-N; assay: Musca domestica test (MUSCDO surface treatment & contact assay); conditions: surface concentration 20 mg/m^2, 30 min exposure, 24 hours after contact, read-out: efficacy (mortality)
Experimental: Musca domestica Test (MUSCDO Surface Treatment & Contact Assay)
Solvent: Aceton+2000 ppm rapeseed oil methyl ester (RME)
This solution is pipetted onto a glazed tile and after evaporation of the acetone, adult flies of the species Musca domestica strain WHO-N are placed onto the dried surface. The exposure time is 30 minutes. Mortality in percent (%) is determined 24 hours after contact of the insects to the treated surface. 100% mortality means that all tested insects are dead, whereas 0% means that no insect died.

C[C@H](NC(=O)c1cc(Br)cc(OC(F)(F)F)c1)c1ncnn1-c1cc(C#N)ncn1 [I-1, 3-bromo-N-{(1S)-1-[1-(6-cyanopyrimidin-4-yl)-1H-1,2,4-triazol-5-yl]ethyl}-5-(trifluoromethoxy)benzamide]
100%: efficacy (larvae dead or moribund) [1] | efficacy (infertile eggs) [2] | mortality at 100 ppm [3] | pest or weed control at 5 µg/cm2, 500 g/ha [4] | mortality at 0.16 ppm ([5]; MYZUPE oral, 0.16 ppm, 5 dat (Table 3), read-out: % Efficacy) | mortality at 4 ppm ([5]; po) | mortality at 100 g/ha [7] | Emax at 20 g/ha ([7]; SPODFR, 20 g ai/ha, 7 dat (Table 3), read-out: % Efficacy)
80 to 100%: mortality at 20 mg/m2 [8]
90%: mortality at 100 g/ha [6]
